Data from patent US6432430B1, “Exfoliating scrub with niacinamide” (priority 2000, dated 2002).

Tested on: acne
Experiment: topical use of the exfoliating scrub on acne, washed off immediately after use
Format: in vivo
Conditions: niacinamide in exfoliating cream, cream immediately removed
Text: The cream is applied to the affected area, typically the face, and is used in the same manner as other exfoliating scrubs by massaging the cream into the skin. The abrasive agent acts to remove dead skin cells and the niacinamide is brought into direct contact with the affected areas. The cream is then removed by washing the area with water, and if desired, a mild soap. […] The frequency with which the exfoliating scrub is applied depends upon several factors, including the severity of the skin condition, and the user's skin type and sensitivity. Patients having oily skin may use the scrub as often as once to twice per day. Patients having dry skin or sensitive skin generally will use the scrub less often. The precise frequency is determined on a case by case basis influenced by the actual results achieved. As described above, the cream is topically applied to the area to be treated and is gently massaged into the skin. The cream is then immediately removed, preferably with warm water. The skin may beneficially be thoroughly cleansed prior to application of the cream of the present invention. In all cases the scrub is washed from the skin immediately after use.

NC(=O)c1cccnc1 [niacinamide]
therapeutic effect on acne: beneficial therapeutic effect on acne
